What was measured:
MoAb CSA-2G9 = assay: Inhibition ELISA to the CSA-DVS-HSA conjugate, MoAb; format: binding, mouse; details: CSA-2G9; Table 24, CSA, CSG and CSA derivative inhibitors
Experimental: (§1) Inhibition ELISA Protocol:
(§2) 1. Use Falcon Pro-bind immunoplates.
(§3) 2. Dilute coating antigen to 1 μg/mL in carbonate-bicarbonate buffer. Add 100 μL per well and incubate overnight at 4° C.
(§4) 3. On the same day prepare inhibiting antigen tubes. Aliquot antibodies into glass test tubes. Prepare appropriate antigen concentration in ethanol and add to aliquoted antibody at 10 μL ethanol solution/250 μL antibody. Vortex tubes and incubate overnight at 4° C.
(§5) 4. Shake out wells and wash 3× with 200 μL PBS/0.05% TWEEN™ (polyoxyethylene-sorbitol) (v/v) per well.
(§6) 5. Add 200 μL blocking buffer per well (PBS/2% BSA (w/v)). Incubate 60 min at room temperature.
(§7) 7. Transfer contents of inhibition tubes to antigen-coated plate, 100 μL per well. Incubate 60 min at 37° C.
(§8) 9. Dilute alkaline phosphatase conjugated anti-mouse IgG (Pierce cat#31322) in PBS/0.1% TWEEN™ (polyoxyethylene-sorbitol) (v/v) to 1:5000 concentration. Add 100 μL per well and incubate at 37° C. for 60 min.
(§9) 11. […] Add 100 μL per well and incubate in the dark at room temperature. Absorbance can be read at 405 nm at approximately 15-min intervals.

MoAb CSA-1H6 = assay: as above; format: binding, mouse; details: CSA-1H6; Table 24, CSA, CSG and CSA derivative inhibitors
Experimental: as §1, §2, §3, §4, §5, §6, §7, §8, §9

MoAb AM1-7F5 = assay: as above; format: binding, mouse; details: AM1-7F5; Table 24, CSA, CSG and CSA derivative inhibitors
Experimental: as §1, §2, §3, §4, §5, §6, §7
(§10) 9. […] Add 100 μL per well and incubate at 37° C. for 60 min.
as §9

MoAb AM1-2E10 = assay: as above; format: binding, mouse; details: AM1-2E10; Table 24, CSA, CSG and CSA derivative inhibitors
Experimental: as §1, §2, §3, §4, §5, §6, §7, §10, §9

[1] = system: Mouse polyclonal sera (CSA-DVS-KLH immunogen); assay: Inhibition ELISA, CSA-DVS-HSA coated plate, mouse polyclonal sera; format: binding
Experimental: as §1, §2, §3, §4, §5, §6, §7, §10, §9

| Molecule | Percent Inhibition (MoAb CSA-2G9) [%] | Percent Inhibition (MoAb CSA-1H6) [%] | Percent Inhibition (MoAb AM1-7F5) [%] | Percent Inhibition (MoAb AM1-2E10) [%] | Percent Inhibition ([1]; Mouse 1, inhibiting AG conc 0.156 μg/100 μL) [%] | Percent Inhibition ([1]; Mouse 1, inhibiting AG conc 0.313 μg/100 μL) [%] | Percent Inhibition ([1]; Mouse 1, inhibiting AG conc 1.25 μg/100 μL) [%] | Percent Inhibition ([1]; Mouse 1, inhibiting AG conc 5 μg/100 μL) [%] | Percent Inhibition ([1]; Mouse 1, inhibiting AG conc 10 μg/100 μL) [%] | Percent Inhibition ([1]; Mouse 2, inhibiting AG conc 0.156 μg/100 μL) [%] | Percent Inhibition ([1]; Mouse 2, inhibiting AG conc 0.313 μg/100 μL) [%] | Percent Inhibition ([1]; Mouse 2, inhibiting AG conc 1.25 μg/100 μL) [%] | Percent Inhibition ([1]; Mouse 2, inhibiting AG conc 5 μg/100 μL) [%] | Percent Inhibition ([1]; Mouse 2, inhibiting AG conc 10 μg/100 μL) [%] |
| --- | --- | --- | --- | --- | --- | --- | --- | --- | --- | --- | --- | --- | --- | --- |
| C=CCC1C=C(C)CC(C)CC(OC)C2OC(O)(C(=O)C(=O)N3CCCCC3C(=O)OC(C(C)=CC3CCC(O)C(OC)C3)C(C)C(O)CC1=NO)C(C)CC2OC (centres unmarked) [III] | 21.9 | 5.5 | 16.6 | 17.8 | – | – | – | – | – | – | – | – | – | – |
| FK-DVS-KLH: FK-DVS-KLH conjugate used as inhibitor | – | – | – | – | 0 | 0 | 0 | 0 | 0 | 0 | 0 | 0 | 0 | 0 |

From patent US6713266B1 (Isodiagnostika Inc., priority 1998, dated 2004)
